# Measurements as given in ChEMBL document CHEMBL1147763, “Synthesis and biological activities of nucleoside-estradiol conjugates” (Bioorg Med Chem Lett, 2006).
# Assays:
# [1] = tested on: MCF7; assay: Cytotoxicity against human breast cancer MCF7 cell line expressing ER; type: functional, cell-based
# [2] = tested on: MDA-MB-231; assay: Cytotoxicity against human breast cancer MDA-MB-231 cell line lacking ER; type: functional, cell-based
# [3] = Cell survival against human breast cancer MCF7 cell line after 72h at 10 uM; type: ADME, cell-based; conditions: MCF7 breast cancer cells, read-out: Activity
# [4] = Cell survival against human breast cancer MDA-MB-231 cell line after 72h at 10 uM; type: ADME, cell-based; conditions: MDA-MB-231 breast cancer cells, read-out: Activity
SMILES,Activity [1],Activity [2],"viability at 72 h, 10 µM [3] [%]","viability at 72 h, 10 µM [4] [%]"
C[C@]12CC[C@@H]3c4ccc(O)cc4CC[C@H]3[C@@H]1CC[C@@]2(O)C#CCCCCC#Cc1cnc(O)nc1O,Not toxic,Not toxic,,
C[C@]12CC[C@@H]3c4ccc(O)cc4CC[C@H]3[C@@H]1CC[C@@]2(O)C#Cc1cn([C@H]2C[C@H](O)[C@@H](CO)O2)c(=O)[nH]c1=O,Not toxic,Not toxic,,
C[C@]12CC[C@@H]3c4ccc(O)cc4CC[C@H]3[C@@H]1CC[C@@]2(O)C#Cc1cnc(O)nc1O,Not toxic,Not toxic,,
Cn1cc(C#C[C@]2(O)CC[C@H]3[C@@H]4CCc5cc(O)ccc5[C@H]4CC[C@@]32C)c(=O)n(C)c1=O,Not toxic,Not toxic,,
C[C@]12CC[C@@H]3c4ccc(O)cc4CC[C@H]3[C@@H]1CC[C@@]2(O)C#CCCCCC#Cc1cn([C@H]2C[C@H](O)[C@@H](CO)O2)c(=O)[nH]c1=O,Not toxic,Not toxic,,
C[C@]12CC[C@@H]3c4ccc(O)cc4CC[C@H]3[C@@H]1CC[C@@]2(O)C#Cc1nc2c(N)ncnc2n1[C@H]1O[C@@H](CO)[C@H](O)[C@@H]1O,Not toxic,Not toxic,,
C[C@]12CC[C@@H]3c4ccc(O)cc4CC[C@H]3[C@@H]1CC[C@@H]2O,Not toxic,Not toxic,,
Cn1cc(C#CCCCCC#C[C@]2(O)CC[C@H]3[C@@H]4CCc5cc(O)ccc5[C@H]4CC[C@@]32C)c(=O)n(C)c1=O,Not toxic,Not toxic,,
CC/C(=C(\c1ccccc1)c1ccc(OCCN(C)C)cc1)c1ccccc1 [TAMOXIFEN],,,72,
O=c1[nH]cc(F)c(=O)[nH]1 [FLUOROURACIL],,,40,67
C[C@]12CC[C@@H]3c4ccc(O)cc4CC[C@H]3[C@@H]1CC[C@@]2(O)C#CCCCCC#Cc1cn([C@@H]2O[C@H](CO)[C@@H](O)[C@H]2O)c(=O)[nH]c1=O,Not toxic,Not toxic,,
